Laboratory results as given in paper PMC11357638 (Molecules, 2024).
Positions count from the first letter of the chain named. “And” between values parts separate entries of the source, which are not always exact repeats. Equal entries are not always repeated.

Key:
HEK293T cells = assay: Cell viability of HEK293T cells (CCK-8 assay); assay type: cell-based, human; details: CA 1 mM, CCK-8, 6 hours treatment
[1] = molecular target: T1, human TRPV3 (hTRPV3) channel (Homo sapiens, UniProt Q8NET8); assay: Whole-cell patch-clamp of hTRPV3 currents in transfected HEK293T cells; assay type: cell-based; details: WT hTRPV3 in HEK293T, whole-cell, activated by 50 μM 2-APB, at +80 mV, Hill fit, mean ± SD; read-out: IC50, inhibition of hTRPV3 currents
T1 construct: expressed in transfected cells; host or cells: HEK293T
T1 sequence (Q8NET8 1-790): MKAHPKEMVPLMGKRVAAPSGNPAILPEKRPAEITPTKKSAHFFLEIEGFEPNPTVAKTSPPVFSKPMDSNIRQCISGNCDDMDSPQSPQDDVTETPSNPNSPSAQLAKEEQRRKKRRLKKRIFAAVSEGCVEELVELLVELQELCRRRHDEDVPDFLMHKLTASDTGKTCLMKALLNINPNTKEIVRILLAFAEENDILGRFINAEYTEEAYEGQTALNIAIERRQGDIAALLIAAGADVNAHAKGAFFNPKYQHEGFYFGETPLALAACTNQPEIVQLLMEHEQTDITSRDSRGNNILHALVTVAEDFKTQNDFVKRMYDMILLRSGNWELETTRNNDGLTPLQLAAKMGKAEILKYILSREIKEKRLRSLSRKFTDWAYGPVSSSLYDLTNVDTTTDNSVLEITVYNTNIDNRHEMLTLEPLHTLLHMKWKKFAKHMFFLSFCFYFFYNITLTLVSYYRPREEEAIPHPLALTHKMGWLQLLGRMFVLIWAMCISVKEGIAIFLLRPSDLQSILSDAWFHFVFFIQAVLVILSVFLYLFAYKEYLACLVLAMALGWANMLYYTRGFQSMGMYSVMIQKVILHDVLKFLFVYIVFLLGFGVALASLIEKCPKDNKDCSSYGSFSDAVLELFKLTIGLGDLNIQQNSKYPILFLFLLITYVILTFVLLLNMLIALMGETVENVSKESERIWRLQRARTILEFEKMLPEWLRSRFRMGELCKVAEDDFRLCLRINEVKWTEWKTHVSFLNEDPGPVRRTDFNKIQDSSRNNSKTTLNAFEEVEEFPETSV

[2] = molecular target: T2, human TRPM8 (hTRPM8) channels (Homo sapiens, UniProt Q7Z2W7); assay: Whole-cell patch-clamp selectivity, hTRPM8 in HEK293T cells; assay type: cell-based; details: HEK-293T; 1000 μM CA, current caused by 500 μM menthol, mean ± SD, n = 5
T2 construct: expressed in transfected cells; host or cells: HEK293T
T2 sequence (Q7Z2W7 whole entry): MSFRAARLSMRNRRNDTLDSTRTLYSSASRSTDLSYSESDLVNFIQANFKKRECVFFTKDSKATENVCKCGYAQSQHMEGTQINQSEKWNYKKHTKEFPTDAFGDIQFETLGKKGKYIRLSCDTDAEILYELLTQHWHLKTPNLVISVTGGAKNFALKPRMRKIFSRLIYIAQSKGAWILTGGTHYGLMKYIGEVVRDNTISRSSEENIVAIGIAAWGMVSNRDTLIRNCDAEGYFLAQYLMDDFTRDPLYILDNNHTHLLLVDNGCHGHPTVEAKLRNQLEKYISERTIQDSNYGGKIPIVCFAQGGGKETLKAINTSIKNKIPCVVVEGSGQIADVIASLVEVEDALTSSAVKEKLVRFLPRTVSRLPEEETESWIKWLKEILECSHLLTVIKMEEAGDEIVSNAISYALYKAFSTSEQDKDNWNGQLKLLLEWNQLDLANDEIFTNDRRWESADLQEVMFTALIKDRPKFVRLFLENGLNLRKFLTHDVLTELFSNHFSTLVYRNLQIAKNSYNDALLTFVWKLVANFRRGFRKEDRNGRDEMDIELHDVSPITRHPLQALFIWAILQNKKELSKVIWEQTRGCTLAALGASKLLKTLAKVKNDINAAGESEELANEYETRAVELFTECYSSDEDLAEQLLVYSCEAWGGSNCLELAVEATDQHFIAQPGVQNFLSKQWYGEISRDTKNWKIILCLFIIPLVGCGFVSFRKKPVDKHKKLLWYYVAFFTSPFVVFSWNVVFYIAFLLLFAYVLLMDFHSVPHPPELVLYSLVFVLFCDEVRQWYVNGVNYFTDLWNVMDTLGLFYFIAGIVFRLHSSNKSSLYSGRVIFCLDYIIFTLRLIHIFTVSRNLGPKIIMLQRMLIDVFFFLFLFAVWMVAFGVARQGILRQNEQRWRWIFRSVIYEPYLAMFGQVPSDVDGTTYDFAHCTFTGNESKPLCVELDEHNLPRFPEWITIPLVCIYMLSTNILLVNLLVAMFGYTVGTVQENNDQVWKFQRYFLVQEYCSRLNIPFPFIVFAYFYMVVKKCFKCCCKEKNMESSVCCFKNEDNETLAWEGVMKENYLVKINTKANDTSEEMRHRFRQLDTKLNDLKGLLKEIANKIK

hTRPV3 L669A mutant = molecular target: T3, hTRPV3 L669A mutant (Homo sapiens, UniProt Q8NET8, L669A); assay: cell-based
T3 sequence (Q8NET8 1-790 L669A): T1 sequence (Q8NET8 1-790) with L669A

hTRPV3 L670A mutant = molecular target: T4, hTRPV3 L670A mutant (Homo sapiens, UniProt Q8NET8, L670A); assay: Whole-cell patch-clamp of hTRPV3 L670A mutant in HEK293T cells; assay type: cell-based; details: 50 μM 2-APB
T4 construct: expressed in transfected cells; host or cells: HEK293T
T4 sequence (Q8NET8 1-790 L670A): T1 sequence (Q8NET8 1-790) with L670A

IC50 [1]: 102 µM and ~100 µM | inhibition at 1000 µM [2]: ~20.1% | IC50 (hTRPV3 L669A mutant): 180 ± 59.9 µM | channel current inhibition by 500 μM CA compared to WT (hTRPV3 L670A mutant): no significant difference
Compound: O=C(O)/C=C/c1ccc(O)c(O)c1 [CA, caffeic acid]
cytotoxicity (cell viability) (HEK293T cells): did not cause any noticeable cytotoxicity
